Active and inactive are the calls of the source. No cut-off for these calls is given here.
Tests used:
[1] = biological target: Albumin (Homo sapiens, UniProt P02768); assay: Binding affinity to HSA by ITC; assay type: ADME; details: isolated protein
[2] = system: MCF7; assay: Antiproliferative activity against human MCF7 cells assessed as cell viability after 48 hrs by MTT assay; details: MCF7, 48 h
[3] = system: HepG2; assay: Antiproliferative activity against human HepG2 cells assessed as cell viability after 48 hrs by MTT assay; details: HepG2, 48 h
[4] = system: HEK293; assay: Antiproliferative activity against human HEK293 cells assessed as cell viability after 48 hrs by MTT assay; assay type: cell-based; details: HEK293, 48 h
[5] = system: HepG2; assay: Induction of apoptosis in human HepG2 cells assessed as viable cells at IC50 after 24 hrs by Annexin V-FITC/propidium iodide staining-based flow cytometric analysis (reference value: 97.6%); assay type: functional
[6] = system: HepG2; assay: Induction of apoptosis in human HepG2 cells assessed as late apoptotic cells at IC50 after 24 hrs by Annexin V-FITC/propidium iodide staining-based flow cytometric analysis (reference value: 0.039%); assay type: functional
[7] = system: MCF7; assay: Induction of apoptosis in human MCF7 cells assessed as viable cells at IC50 after 24 hrs by Annexin V-FITC/propidium iodide staining-based flow cytometric analysis (reference value: 98.4%); assay type: functional
[8] = system: MCF7; assay: Induction of apoptosis in human MCF7 cells assessed as early apoptotic cells at IC50 after 24 hrs by Annexin V-FITC/propidium iodide staining-based flow cytometric analysis (reference value: 1.23%); assay type: functional
[9] = system: MCF7; assay: Induction of apoptosis in human MCF7 cells assessed as late apoptotic cells at IC50 after 24 hrs by Annexin V-FITC/propidium iodide staining-based flow cytometric analysis (reference value: 0.077%); assay type: functional
[10] = system: MCF7; assay: Induction of apoptosis in human MCF7 cells assessed as necrotic cells at IC50 after 24 hrs by Annexin V-FITC/propidium iodide staining-based flow cytometric analysis (reference value: 0.27%); assay type: functional
[11] = system: MDA-MB-435S; assay: Induction of apoptosis in human MDA-MB-435S cells assessed as viable cells at IC50 after 24 hrs by Annexin V-FITC/propidium iodide staining-based flow cytometric analysis (reference value: 98.8%); assay type: functional
[12] = system: MDA-MB-435S; assay: Induction of apoptosis in human MDA-MB-435S cells assessed as early apoptotic cells at IC50 after 24 hrs by Annexin V-FITC/propidium iodide staining-based flow cytometric analysis (reference value: 0.36%); assay type: functional
[13] = system: MDA-MB-435S; assay: Induction of apoptosis in human MDA-MB-435S cells assessed as late apoptotic cells at IC50 after 24 hrs by Annexin V-FITC/propidium iodide staining-based flow cytometric analysis (reference value: 0.18%); assay type: functional
[14] = system: MDA-MB-435S; assay: Induction of apoptosis in human MDA-MB-435S cells assessed as necrotic cells at IC50 after 24 hrs by Annexin V-FITC/propidium iodide staining-based flow cytometric analysis (reference value: 0.64%); assay type: functional
[15] = system: MCF7; assay: Antimigratory activity against human MCF7 cells at IC50 after 48 hrs by wound-healing assay; assay type: functional, cell-based
[16] = system: HepG2; assay: Antimigratory activity against human HepG2 cells at IC50 after 48 hrs by wound-healing assay; assay type: functional, cell-based
[17] = biological target: MAP kinase-activated protein kinase 2 (Homo sapiens) (UniProt P49137); assay: Inhibition of MAPKAPK2 (unknown origin) at 10 uM after 60 mins by ADP-Glo luminescence assay
[18] = biological target: Serine/threonine-protein kinase Chk1 (Homo sapiens) (UniProt O14757); assay: Inhibition of CHK1 (unknown origin) at 10 uM after 60 mins by ADP-Glo luminescence assay
[19] = biological target: Serine/threonine-protein kinase Chk2 (Homo sapiens) (UniProt O96017); assay: Inhibition of CHK2 (unknown origin) at 10 uM after 60 mins by ADP-Glo luminescence assay
[20] = biological target: PAS domain-containing serine/threonine-protein kinase (Homo sapiens) (UniProt Q96RG2); assay: Inhibition of PASK (unknown origin) at 10 uM after 60 mins by ADP-Glo luminescence assay
[21] = biological target: Serine/threonine-protein kinase pim-1 (Homo sapiens) (UniProt P11309); assay: Inhibition of PIM1 (unknown origin) at 10 uM after 60 mins by ADP-Glo luminescence assay
[22] = biological target: Calcium/calmodulin-dependent protein kinase type II subunit alpha (Homo sapiens) (UniProt Q9UQM7); assay: Inhibition of CAMK2 alpha (unknown origin) at 10 uM after 60 mins by ADP-Glo luminescence assay
[23] = biological target: Calcium/calmodulin-dependent protein kinase type II subunit beta (Homo sapiens) (UniProt Q13554); assay: Inhibition of CAMK2 beta (unknown origin) at 10 uM after 60 mins by ADP-Glo luminescence assay
[24] = biological target: Calcium/calmodulin-dependent protein kinase type IV (Homo sapiens) (UniProt Q16566); assay: Inhibition of CAMK4 (unknown origin) at 10 uM after 60 mins by ADP-Glo luminescence assay
[25] = biological target: Calcium/calmodulin-dependent protein kinase type 1 (Homo sapiens) (UniProt Q14012); assay: Inhibition of CAMKI (unknown origin) at 10 uM after 60 mins by ADP-Glo luminescence assay
[26] = biological target: Calcium/calmodulin-dependent protein kinase type II subunit beta (Homo sapiens) (UniProt Q13554); assay: Inhibition of CAMKII (unknown origin) at 10 uM after 60 mins by ADP-Glo luminescence assay
[27] = biological target: 5'-AMP-activated protein kinase catalytic subunit alpha-1 (Homo sapiens) (UniProt Q13131); assay: Inhibition of AMPKA1 (unknown origin) at 10 uM after 60 mins by ADP-Glo luminescence assay
[28] = biological target: 5'-AMP-activated protein kinase subunit beta-1 (Homo sapiens) (UniProt Q9Y478); assay: Inhibition of AMPKB1 (unknown origin) at 10 uM after 60 mins by ADP-Glo luminescence assay
[29] = biological target: Ribosomal protein S6 kinase beta-1 (Homo sapiens) (UniProt P23443); assay: Inhibition of S6K (unknown origin) at 10 uM after 60 mins by ADP-Glo luminescence assay
[30] = biological target: Transcription factor HIVEP2 (Homo sapiens) (UniProt P31629); assay: Inhibition of MBP2 (unknown origin) at 10 uM after 60 mins by ADP-Glo luminescence assay
[31] = biological target: Death-associated protein kinase 1 (Homo sapiens) (UniProt P53355); assay: Inhibition of DAPK1 (unknown origin) at 10 uM after 60 mins by ADP-Glo luminescence assay
[32] = biological target: Serine/threonine-protein kinase D1 (Homo sapiens) (UniProt Q15139); assay: Inhibition of PKCmu (unknown origin) at 10 uM after 60 mins by ADP-Glo luminescence assay
[33] = system: MDA-MB-435S; assay: cells; details: Homo sapiens, 48 h
Description: Antiproliferative activity against human MDA-MB-435S cells assessed as cell viability after 48 hrs by MTT assay

Calcium/calmodulin-dependent protein kinase type II subunit beta (Homo sapiens), sequence (Q13554 whole entry): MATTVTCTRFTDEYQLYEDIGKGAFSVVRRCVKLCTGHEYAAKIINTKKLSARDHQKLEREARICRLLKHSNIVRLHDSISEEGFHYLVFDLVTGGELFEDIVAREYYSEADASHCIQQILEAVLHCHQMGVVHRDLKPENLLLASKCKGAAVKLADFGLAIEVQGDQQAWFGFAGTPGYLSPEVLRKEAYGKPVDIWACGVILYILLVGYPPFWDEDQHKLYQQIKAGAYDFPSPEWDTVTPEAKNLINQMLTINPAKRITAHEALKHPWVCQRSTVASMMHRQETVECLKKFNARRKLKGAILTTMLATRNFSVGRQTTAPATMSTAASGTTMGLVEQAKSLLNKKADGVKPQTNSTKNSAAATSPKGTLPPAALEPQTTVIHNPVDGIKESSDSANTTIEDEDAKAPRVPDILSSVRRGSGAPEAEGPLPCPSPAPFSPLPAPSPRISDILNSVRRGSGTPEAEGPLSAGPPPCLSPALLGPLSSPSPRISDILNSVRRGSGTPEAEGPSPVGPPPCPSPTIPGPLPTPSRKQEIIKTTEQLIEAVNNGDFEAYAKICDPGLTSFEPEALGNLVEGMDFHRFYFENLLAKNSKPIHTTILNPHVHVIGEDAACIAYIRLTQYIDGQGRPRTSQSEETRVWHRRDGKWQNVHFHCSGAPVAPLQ
Serine/threonine-protein kinase Chk1 (Homo sapiens), sequence (O14757 whole entry): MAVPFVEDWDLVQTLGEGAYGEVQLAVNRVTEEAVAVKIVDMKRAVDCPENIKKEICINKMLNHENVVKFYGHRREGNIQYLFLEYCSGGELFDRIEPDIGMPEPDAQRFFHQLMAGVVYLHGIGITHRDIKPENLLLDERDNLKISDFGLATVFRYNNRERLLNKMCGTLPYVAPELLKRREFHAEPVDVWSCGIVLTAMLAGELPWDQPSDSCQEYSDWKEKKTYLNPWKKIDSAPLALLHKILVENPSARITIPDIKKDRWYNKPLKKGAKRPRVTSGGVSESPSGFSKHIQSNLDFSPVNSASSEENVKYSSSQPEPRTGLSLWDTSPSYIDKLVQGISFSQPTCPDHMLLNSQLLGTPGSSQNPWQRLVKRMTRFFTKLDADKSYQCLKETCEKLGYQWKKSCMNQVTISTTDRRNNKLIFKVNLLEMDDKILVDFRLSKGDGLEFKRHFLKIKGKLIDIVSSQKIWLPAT
Serine/threonine-protein kinase Chk2 (Homo sapiens), sequence (O96017 whole entry, the tested form may be a part): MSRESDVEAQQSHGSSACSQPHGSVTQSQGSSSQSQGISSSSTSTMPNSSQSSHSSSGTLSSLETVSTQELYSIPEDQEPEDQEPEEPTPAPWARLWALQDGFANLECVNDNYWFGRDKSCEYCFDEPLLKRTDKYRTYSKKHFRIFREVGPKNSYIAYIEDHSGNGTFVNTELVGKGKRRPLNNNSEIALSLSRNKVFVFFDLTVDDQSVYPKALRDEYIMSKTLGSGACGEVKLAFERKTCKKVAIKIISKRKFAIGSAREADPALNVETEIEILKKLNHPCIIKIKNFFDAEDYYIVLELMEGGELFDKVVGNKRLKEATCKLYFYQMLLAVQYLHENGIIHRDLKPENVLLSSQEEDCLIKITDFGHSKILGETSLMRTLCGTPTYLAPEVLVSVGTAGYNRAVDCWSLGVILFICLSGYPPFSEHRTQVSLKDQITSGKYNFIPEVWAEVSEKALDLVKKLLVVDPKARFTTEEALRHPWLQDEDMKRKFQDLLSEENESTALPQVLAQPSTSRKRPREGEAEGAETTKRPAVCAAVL
Calcium/calmodulin-dependent protein kinase type 1 (Homo sapiens), sequence (Q14012 whole entry, looked up): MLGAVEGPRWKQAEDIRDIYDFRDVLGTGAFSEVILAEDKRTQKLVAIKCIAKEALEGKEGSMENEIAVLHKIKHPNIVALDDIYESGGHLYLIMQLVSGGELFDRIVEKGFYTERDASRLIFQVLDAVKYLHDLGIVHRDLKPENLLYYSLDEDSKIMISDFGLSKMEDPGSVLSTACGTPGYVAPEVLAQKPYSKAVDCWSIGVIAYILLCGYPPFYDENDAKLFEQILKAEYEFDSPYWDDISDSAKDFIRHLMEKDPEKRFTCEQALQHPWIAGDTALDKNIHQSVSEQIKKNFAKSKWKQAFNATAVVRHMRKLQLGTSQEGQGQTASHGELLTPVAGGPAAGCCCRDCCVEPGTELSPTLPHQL
Serine/threonine-protein kinase D1 (Homo sapiens), sequence (Q15139 whole entry): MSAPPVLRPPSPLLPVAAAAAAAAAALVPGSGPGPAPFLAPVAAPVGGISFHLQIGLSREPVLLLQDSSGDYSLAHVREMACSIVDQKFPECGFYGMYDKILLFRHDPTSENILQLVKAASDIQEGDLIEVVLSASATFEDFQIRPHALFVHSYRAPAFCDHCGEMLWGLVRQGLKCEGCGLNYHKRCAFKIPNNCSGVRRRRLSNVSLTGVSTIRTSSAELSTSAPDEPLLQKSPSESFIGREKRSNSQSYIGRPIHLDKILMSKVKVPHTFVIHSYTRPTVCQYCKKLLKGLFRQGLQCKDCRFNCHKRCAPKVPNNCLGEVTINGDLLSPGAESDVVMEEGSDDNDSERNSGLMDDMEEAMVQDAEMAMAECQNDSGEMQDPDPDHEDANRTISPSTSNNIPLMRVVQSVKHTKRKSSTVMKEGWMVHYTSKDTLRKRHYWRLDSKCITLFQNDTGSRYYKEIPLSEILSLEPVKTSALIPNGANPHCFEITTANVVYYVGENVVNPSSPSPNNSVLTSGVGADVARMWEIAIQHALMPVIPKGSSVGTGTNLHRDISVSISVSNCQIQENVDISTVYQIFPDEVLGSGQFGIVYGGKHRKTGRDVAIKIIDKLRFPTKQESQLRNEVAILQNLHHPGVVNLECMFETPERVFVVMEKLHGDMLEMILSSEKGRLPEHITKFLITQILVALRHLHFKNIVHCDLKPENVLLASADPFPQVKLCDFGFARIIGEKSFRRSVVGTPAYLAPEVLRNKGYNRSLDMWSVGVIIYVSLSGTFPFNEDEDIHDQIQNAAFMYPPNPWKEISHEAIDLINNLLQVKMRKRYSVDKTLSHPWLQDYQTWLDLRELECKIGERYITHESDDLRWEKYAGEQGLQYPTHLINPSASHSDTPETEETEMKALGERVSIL
MAP kinase-activated protein kinase 2 (Homo sapiens), sequence (P49137 whole entry, looked up): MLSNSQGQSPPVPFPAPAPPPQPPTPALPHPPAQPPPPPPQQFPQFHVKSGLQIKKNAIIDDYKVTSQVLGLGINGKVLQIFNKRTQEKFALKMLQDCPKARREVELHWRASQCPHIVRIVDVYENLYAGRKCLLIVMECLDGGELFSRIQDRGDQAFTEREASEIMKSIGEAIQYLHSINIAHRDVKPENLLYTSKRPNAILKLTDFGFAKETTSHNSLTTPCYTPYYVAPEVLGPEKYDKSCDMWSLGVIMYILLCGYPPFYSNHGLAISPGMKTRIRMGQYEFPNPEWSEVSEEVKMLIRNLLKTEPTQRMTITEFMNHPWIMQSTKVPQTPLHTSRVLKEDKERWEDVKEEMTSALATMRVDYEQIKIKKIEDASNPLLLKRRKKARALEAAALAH
Albumin, sequence (P02768 whole entry): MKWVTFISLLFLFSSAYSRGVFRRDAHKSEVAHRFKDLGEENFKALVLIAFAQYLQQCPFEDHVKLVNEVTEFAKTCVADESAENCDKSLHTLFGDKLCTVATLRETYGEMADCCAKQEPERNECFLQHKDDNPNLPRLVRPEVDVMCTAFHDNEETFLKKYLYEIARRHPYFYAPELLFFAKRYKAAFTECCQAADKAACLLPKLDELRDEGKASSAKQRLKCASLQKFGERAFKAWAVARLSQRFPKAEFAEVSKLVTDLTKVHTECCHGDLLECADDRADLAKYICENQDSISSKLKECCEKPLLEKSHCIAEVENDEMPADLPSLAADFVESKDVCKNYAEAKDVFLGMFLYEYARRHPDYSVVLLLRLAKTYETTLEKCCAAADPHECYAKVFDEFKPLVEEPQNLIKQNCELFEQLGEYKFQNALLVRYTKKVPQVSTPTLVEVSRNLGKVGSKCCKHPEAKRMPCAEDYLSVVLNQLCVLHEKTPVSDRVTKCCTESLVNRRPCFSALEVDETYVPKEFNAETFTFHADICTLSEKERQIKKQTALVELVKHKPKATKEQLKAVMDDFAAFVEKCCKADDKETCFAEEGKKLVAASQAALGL
Calcium/calmodulin-dependent protein kinase type II subunit alpha (Homo sapiens), sequence (Q9UQM7 whole entry): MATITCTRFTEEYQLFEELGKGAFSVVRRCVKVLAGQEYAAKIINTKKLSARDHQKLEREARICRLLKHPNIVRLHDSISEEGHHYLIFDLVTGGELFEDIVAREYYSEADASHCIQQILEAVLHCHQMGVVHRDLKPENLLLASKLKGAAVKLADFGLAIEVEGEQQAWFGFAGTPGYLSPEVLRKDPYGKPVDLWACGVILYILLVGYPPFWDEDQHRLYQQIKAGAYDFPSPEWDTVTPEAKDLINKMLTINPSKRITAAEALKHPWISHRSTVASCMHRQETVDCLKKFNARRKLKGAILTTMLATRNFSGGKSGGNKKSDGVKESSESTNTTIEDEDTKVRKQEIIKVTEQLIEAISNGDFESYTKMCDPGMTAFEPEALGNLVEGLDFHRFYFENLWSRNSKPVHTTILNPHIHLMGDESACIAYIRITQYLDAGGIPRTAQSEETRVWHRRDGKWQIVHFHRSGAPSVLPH
Ribosomal protein S6 kinase beta-1 (Homo sapiens), sequence (P23443 whole entry, looked up): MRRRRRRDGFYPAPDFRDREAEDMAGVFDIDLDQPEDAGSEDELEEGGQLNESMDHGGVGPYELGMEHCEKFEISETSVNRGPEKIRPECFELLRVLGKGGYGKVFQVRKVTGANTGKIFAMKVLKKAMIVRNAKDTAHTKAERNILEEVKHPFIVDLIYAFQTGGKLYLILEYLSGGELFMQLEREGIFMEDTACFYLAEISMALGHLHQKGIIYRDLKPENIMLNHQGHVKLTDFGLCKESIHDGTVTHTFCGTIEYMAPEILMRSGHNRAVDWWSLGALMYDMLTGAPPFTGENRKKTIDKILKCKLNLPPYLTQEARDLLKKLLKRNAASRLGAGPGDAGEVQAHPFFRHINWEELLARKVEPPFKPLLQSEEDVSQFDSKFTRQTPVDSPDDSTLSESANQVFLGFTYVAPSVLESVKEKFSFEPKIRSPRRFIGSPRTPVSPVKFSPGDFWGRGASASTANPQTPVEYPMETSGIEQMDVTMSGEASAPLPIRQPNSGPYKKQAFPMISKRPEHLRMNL

COc1ccc(Cn2cc(C(=O)N/N=C3/C(=O)Nc4c(C)cccc43)nn2)cc1
Ka [1]: 1.27 ×10⁴ /M | IC50 [2]: 6.22 µM | IC50 [3]: 8.14 µM | IC50 [4]: 200 µM | Activity [5]: 59.4% | Activity [6]: 1.19% | Activity [7]: 52.6% | Activity [8]: 33.5% | Activity [9]: 13.1% | Activity [10]: 0.75% | Activity [11]: 66.3% | Activity [12]: 30.9% | Activity [13]: 2.24% | Activity [14]: 0.59% | Activity [15]: Active | Activity [16]: Active | inhibition [17]: inactive | inhibition [18]: inactive | inhibition [19]: inactive | inhibition [20]: inactive | inhibition [21]: inactive | inhibition [22]: inactive | inhibition [23]: inactive | inhibition [24]: inactive | inhibition [25]: inactive | inhibition [26]: inactive | inhibition [27]: inactive | inhibition [28]: inactive | inhibition [29]: inactive | inhibition [30]: inactive | inhibition [31]: inactive | inhibition [32]: inactive | IC50 [33]: 9.94 µM
